# Measurements from patent publication US6528500B1, “Azole derivatives or salts thereof” (SSP Co., Ltd., priority 1999, dated 2003).
# Structures can show the parent of a compound that is named as a salt.
# Assays:
# [1] = Aqueous solubility comparison; format: physicochemical; settings: water (aqueous solubility), parent compound in the form of a free base
# Description: The compound obtained in Example 1 was compared in aqueous solubility with a parent (non-phosphorylated) compound (in the form of a free base).
# C. albicans IFM 40009 = experiment: In vivo activities against the Candida albicans murine model; settings: male ICR mice, C. albicans IFM 40009 3×10^6 cells/mouse i.v.; 1 mg/kg intravenously once daily for 4 days; observed 14 days; ***P < 0.001 relative to Infection control
# Description: Four-week-old male ICR mice were fasted for 6 hours. The mice were inoculated at 3×10^6 cells/mouse of C. albicans IFM 40009 into the tail vein. The infection control group and the drug-treated group consisted of 10 and 5 animals, respectively. The compound of Example 1 and the parent compound were dissolved in 20% polyethylene glycol 200. The drug solutions were intravenously administered at the dose of 1 mg/kg once daily for 4 consecutive days after infection. […] Paired comparison of duration of survival between the infection control and drug-treated groups were analyzed by Log-Rank test.
melting point [°C],SMILES,solubility [1] [µg/mL],Average surviving days (C. albicans IFM 40009)
216 to 218,CS(=O)(=O)C(F)(F)C(Cn1cncn1)(OP(=O)(O)O)c1ccc(F)cc1F (centres unmarked) (as salt: phosphate),–,–
–,"CCS(=O)(=O)C(F)(F)C(Cn1cncn1)(OP(=O)(O)O)c1ccc(F)cc1F (single isomer, unassigned; (+)) [Example 1, (+)-1-(2,4-difluorophenyl)-2-(ethylsulfonyl)-2,2-difluoro-1-(1H-1,2,4-triazole-1-ylmethyl)ethyl Dihydrogen Phosphate]",4800,14.0*** days
–,"CCS(=O)(=O)C(F)(F)C(O)(Cn1cncn1)c1ccc(F)cc1F (single isomer, unassigned; (-)) [Parent compound, (−)-2-(2,4-difluorophenyl)-1-(ethylsulfonyl)-1,1-difluoro-3-(1H-1,2,4-triazol-1-yl)-2-propanol, reference compound]",500,14.0*** days
